In patent US20150105252A1, “SUBSTITUTED PYRAZOLES AS HERBICIDES” (E I DU PONT DE NEMOURS AND COMPANY, priority 2013, published 2015):

Key:
Conditions in all cases: scale 0 to 100
[1] = tested on: field violet; test: Test D preemergence; format: in vivo, Viola arvensis
Source text: (§1) Seeds of plant species selected from bluegrass (annual bluegrass, Poa annua), blackgrass (Alopecurus myosuroides), canarygrass (littleseed canarygrass, Phalaris minor), chickweed (common chickweed, Stellaria media), galium (catchweed bedstraw, Galium aparine), bromegrass, downy (downy bromegrass, Bromus tectorum), field poppy (Papaver rhoeas), field violet (Viola arvensis), foxtail, green (green foxtail, Setaria viridis), deadnettle (henbit deadnettle, Lamium amplexicaule), ryegrass, Italian (Italian ryegrass, Lolium multiflorum), kochia (Kochia scoparia), lambsquarters (Chenopodium album), oilseed rape (Brassica napus), pigweed (redroot pigweed, Amaranthus retroflexus), chamomile (scentless chamomile, Matricaria inodora), speedwell (bird's-eye speedwell, Veronica persica), barley, spring (spring barley, Hordeum vulgare), wheat, spring (spring wheat, Triticum aestivum), buckwheat, wild (wild buckwheat, Polygonum convolvulus), mustard, wild (wild mustard, Sinapis arvensis), oat, wild (wild oat, Avena fatua), radish, wild (wild radish, Raphanus raphanistrum), windgrass (Apera spica-venti), Russian thistle (Salsola kali), barley, winter (winter barley, Hordeum vulgare), and wheat, winter (winter wheat, Triticum aestivum) were planted into a silt loam soil and treated preemergence with test chemicals formulated in a non-phytotoxic solvent mixture which included a surfactant.
(§2) At the same time, these species were planted in pots containing Redi-Earth® planting medium (Scotts Company, 14111 Scottslawn Road, Marysville, Ohio 43041) comprising spaghnum peat moss, vermiculite, wetting agent and starter nutrients and treated with postemergence applications of the test chemicals formulated in the same manner. Plants ranged in height from 2 to 18 cm (1- to 4-leaf stage). Treated plants and controls were maintained in a controlled growth environment for 14 to 21 days after which time all species were compared to controls and visually evaluated. Plant response ratings, summarized in Table D, are based on a scale of 0 to 100 where 0 is no effect and 100 is complete control. A dash (-) response means no test result.

[2] = tested on: speedwell; test: Test D preemergence; format: in vivo, Veronica persica
Source text: as §1, §2

[3] = tested on: blackgrass; test: Test D postemergence; format: in vivo, Alopecurus myosuroides
Method in brief: (§3)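 Whole-plant herbicidal activity; pre- and postemergence sprays. Soil: silt loam (pre); peat/vermiculite medium (post, 1–4 leaf). Assessment: 14–21 days, visual, 0 = no effect, 100 = complete control.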

[4] = tested on: canarygrass; test: Test D postemergence; format: in vivo, Phalaris minor
Source text: as §1, §2

[5] = tested on: field violet; test: Test D postemergence; format: in vivo, Viola arvensis
Source text: as §1, §2

[6] = tested on: lambsquarters; test: Test D postemergence; format: in vivo, Chenopodium album
Source text: as §1, §2

[7] = tested on: oilseed rape; test: Test D postemergence; format: in vivo, Brassica napus
Source text: as §1, §2

[8] = tested on: chamomile; test: Test D postemergence; format: in vivo, Matricaria inodora
Method in brief: as §3

[9] = tested on: barley, spring; test: Test D postemergence; format: in vivo, Hordeum vulgare
Method in brief: as §3

[10] = tested on: barley, winter; test: Test D postemergence; format: in vivo, Hordeum vulgare
Method in brief: as §3

[11] = tested on: mustard, wild; test: Test D postemergence; format: in vivo, Sinapis arvensis
Method in brief: as §3

CCCc1cc(C(=O)NCC(F)(F)F)nn1Cc1cc(C(F)(F)F)nn1C [Compound 138]
Plant response rating, Field Violet ([1]; 62 g ai/ha): 100 | Plant response rating, Field Violet ([1]; 125 g ai/ha): 100 | Plant response rating, Field Violet ([1]; 250 g ai/ha): 100 | Plant response rating, Speedwell ([2]; 62 g ai/ha): 100 | Plant response rating, Speedwell ([2]; 125 g ai/ha): 100 | Plant response rating, Speedwell ([2]; 250 g ai/ha): 100 | Blackgrass plant response rating ([3]; Postemergence, 31 g ai/ha): 25 | Blackgrass plant response rating ([3]; Postemergence, 125 g ai/ha): 40 | Blackgrass plant response rating ([3]; Postemergence, 250 g ai/ha): 75 | Blackgrass plant response rating ([3]; postemergence, 62 g ai/ha): 25 | Canarygrass plant response rating ([4]; Postemergence, 31 g ai/ha): 5 | Canarygrass plant response rating ([4]; Postemergence, 125 g ai/ha): 25 | Canarygrass plant response rating ([4]; Postemergence, 250 g ai/ha): 70 | Canarygrass plant response rating ([4]; postemergence, 62 g ai/ha): 5 | Field Violet plant response rating ([5]; Postemergence, 31 g ai/ha): 80 | Field Violet plant response rating ([5]; Postemergence, 125 g ai/ha): 75 | Field Violet plant response rating ([5]; Postemergence, 250 g ai/ha): 95 | Field Violet plant response rating ([5]; postemergence, 62 g ai/ha): 80 | Lambsquarters plant response rating ([6]; Postemergence, 31 g ai/ha): 80 | Lambsquarters plant response rating ([6]; Postemergence, 125 g ai/ha): 80 | Lambsquarters plant response rating ([6]; Postemergence, 250 g ai/ha): 80 | Lambsquarters plant response rating ([6]; postemergence, 62 g ai/ha): 80 | Oilseed Rape plant response rating ([7]; Postemergence, 31 g ai/ha): 60 | Oilseed Rape plant response rating ([7]; Postemergence, 125 g ai/ha): 90 | Oilseed Rape plant response rating ([7]; Postemergence, 250 g ai/ha): 100 | Oilseed Rape plant response rating ([7]; postemergence, 62 g ai/ha): 60 | Chamomile plant response rating ([8]; Postemergence, 31 g ai/ha): 50 | Chamomile plant response rating ([8]; Postemergence, 125 g ai/ha): 60 | Chamomile plant response rating ([8]; Postemergence, 250 g ai/ha): 65 | Chamomile plant response rating ([8]; postemergence, 62 g ai/ha): 50 | Barley, Spring plant response rating ([9]; Postemergence, 31 g ai/ha): 15 | Barley, Spring plant response rating ([9]; Postemergence, 125 g ai/ha): 25 | Barley, Spring plant response rating ([9]; Postemergence, 250 g ai/ha): 40 | Barley, Spring plant response rating ([9]; postemergence, 62 g ai/ha): 15 | Barley, Winter plant response rating ([10]; Postemergence, 31 g ai/ha): 15 | Barley, Winter plant response rating ([10]; Postemergence, 125 g ai/ha): 20 | Barley, Winter plant response rating ([10]; Postemergence, 250 g ai/ha): 40 | Barley, Winter plant response rating ([10]; postemergence, 62 g ai/ha): 15 | Mustard, Wild plant response rating ([11]; Postemergence, 31 g ai/ha): 100 | Mustard, Wild plant response rating ([11]; Postemergence, 125 g ai/ha): 100 | Mustard, Wild plant response rating ([11]; Postemergence, 250 g ai/ha): 100 | Mustard, Wild plant response rating ([11]; postemergence, 62 g ai/ha): 100

CCOc1cc(C(=O)NC2CC2)nn1Cc1ccnc(C(F)(F)F)c1 [Compound 189]
Plant response rating, Field Violet ([1]; 62 g ai/ha): 100 | Plant response rating, Field Violet ([1]; 125 g ai/ha): 100 | Plant response rating, Field Violet ([1]; 250 g ai/ha): 100 | Plant response rating, Speedwell ([2]; 62 g ai/ha): 100 | Plant response rating, Speedwell ([2]; 125 g ai/ha): 100 | Plant response rating, Speedwell ([2]; 250 g ai/ha): 100 | Blackgrass plant response rating ([3]; Postemergence, 31 g ai/ha): 10 | Blackgrass plant response rating ([3]; Postemergence, 125 g ai/ha): 15 | Blackgrass plant response rating ([3]; Postemergence, 250 g ai/ha): 20 | Blackgrass plant response rating ([3]; postemergence, 62 g ai/ha): 10 | Canarygrass plant response rating ([4]; Postemergence, 31 g ai/ha): 15 | Canarygrass plant response rating ([4]; Postemergence, 125 g ai/ha): 20 | Canarygrass plant response rating ([4]; Postemergence, 250 g ai/ha): 30 | Canarygrass plant response rating ([4]; postemergence, 62 g ai/ha): 15 | Field Violet plant response rating ([5]; Postemergence, 31 g ai/ha): 60 | Field Violet plant response rating ([5]; Postemergence, 125 g ai/ha): 100 | Field Violet plant response rating ([5]; Postemergence, 250 g ai/ha): 100 | Field Violet plant response rating ([5]; postemergence, 62 g ai/ha): 60 | Lambsquarters plant response rating ([6]; Postemergence, 31 g ai/ha): 75 | Lambsquarters plant response rating ([6]; Postemergence, 125 g ai/ha): 80 | Lambsquarters plant response rating ([6]; Postemergence, 250 g ai/ha): 90 | Lambsquarters plant response rating ([6]; postemergence, 62 g ai/ha): 75 | Oilseed Rape plant response rating ([7]; Postemergence, 31 g ai/ha): 40 | Oilseed Rape plant response rating ([7]; Postemergence, 125 g ai/ha): 55 | Oilseed Rape plant response rating ([7]; Postemergence, 250 g ai/ha): 60 | Oilseed Rape plant response rating ([7]; postemergence, 62 g ai/ha): 40 | Chamomile plant response rating ([8]; Postemergence, 31 g ai/ha): 55 | Chamomile plant response rating ([8]; Postemergence, 125 g ai/ha): 60 | Chamomile plant response rating ([8]; Postemergence, 250 g ai/ha): 65 | Chamomile plant response rating ([8]; postemergence, 62 g ai/ha): 55 | Barley, Spring plant response rating ([9]; Postemergence, 31 g ai/ha): 10 | Barley, Spring plant response rating ([9]; Postemergence, 125 g ai/ha): 15 | Barley, Spring plant response rating ([9]; Postemergence, 250 g ai/ha): 25 | Barley, Spring plant response rating ([9]; postemergence, 62 g ai/ha): 10 | Barley, Winter plant response rating ([10]; Postemergence, 31 g ai/ha): 15 | Barley, Winter plant response rating ([10]; Postemergence, 125 g ai/ha): 20 | Barley, Winter plant response rating ([10]; Postemergence, 250 g ai/ha): 20 | Barley, Winter plant response rating ([10]; postemergence, 62 g ai/ha): 15 | Mustard, Wild plant response rating ([11]; Postemergence, 31 g ai/ha): 40 | Mustard, Wild plant response rating ([11]; Postemergence, 125 g ai/ha): 40 | Mustard, Wild plant response rating ([11]; Postemergence, 250 g ai/ha): 80 | Mustard, Wild plant response rating ([11]; postemergence, 62 g ai/ha): 40
